Assay results published in patent US7423157B2, “Substituted benzimidazoles and their use for inducing apoptosis” (Basilea Pharmaceutica AG, priority 2004, dated 2008).

Tests used:
HeLa [1] = experiment: MTS proliferation assay, HeLa; type: cell-based, human; conditions: 72 h incubation
Experimental: (§1) The assay is performed in 96 well tissue culture plates. The cells (range: 1.5*10^3-10^4) are seeded out in 80 μl complete medium 24 h prior to compound treatment. The test compounds are added in 20 μl complete medium containing max 5% DMSO. The final compound concentrations in the assays are 10 μM, 3 μM, 1 μM and 0.3 μM, respectively. The assay plates are incubated for 72 h at culture conditions. The MTS reagent is prepared according to the manufacturer's protocol (Promega G1111). 20 μl MTS reagent are added to each well, the assay plates are quickly spun and incubated for another 3 h at culture conditions. Subsequently, the plates are shortly shaked and absorption measured with a microplate-reader at 492 nm.

Jily = experiment: Hoechst 33342 nuclear staining, Jily; type: cell-based; conditions: 48 h
Experimental: (§2) This assay is performed in 96 well tissue culture plates. Appropriate number of cells (adherent cells: 3-5*10^3, suspension cells: 8-10*10^3) are being seeded out in 80 μl complete medium. Adherent cells are incubated for 24 h for proper spreading out before addition of test compounds while suspension cells are immediately treated with test compounds after seeding out. The test compounds are added in 20 μl complete medium containing max 5% DMSO. The final compound concentrations in the assays are 10 μM, 3 μM, 1 μM and 0.3 μM, respectively. […] The assay plates are then further incubated for 30 minutes and subsequently analyzed with a standard inverted fluorescence microscope.
(§3) The readout allows the determination of the fraction of apoptotic nuclei as well as other morphological criteria specific for apoptosis as a function of the treatment. The following scores are used: 0 relating to no activity, 1 relating to weak activity comprising less than 50% of the cells and score 2 relating to strong activity comprising more than 50% of the cells.

Jurkat [2] = experiment: Hoechst 33342 nuclear staining, Jurkat; type: cell-based, human; conditions: 48 h
Experimental: as §2, §3

H460 = experiment: Hoechst 33342 nuclear staining, H460; type: cell-based, human; conditions: H460, 48 h
Experimental: as §2, §3

HeLa [3] = experiment: Hoechst 33342 nuclear staining, HeLa; type: cell-based, human; conditions: 48 h
Experimental: as §2, §3

Jurkat [4] = experiment: MTS proliferation assay, Jurkat; type: cell-based, human; conditions: 72 h incubation
Experimental: as §1

MRC5 = experiment: Hoechst 33342 nuclear staining, MRC5; type: cell-based; design: key: 0 = no activity, 1 = weak (<50% of cells), 2 = strong (>50% of cells); conditions: MRC5, 48 h
Experimental: as §2, §3

PBLs = experiment: Hoechst 33342 nuclear staining, PBLs; type: cell-based; design: key: 0 = no activity, 1 = weak (<50% of cells), 2 = strong (>50% of cells); conditions: 48 h
Experimental: as §2, §3

| SMILES | IC50 (HeLa [1]) | Hoechst 33342 nuclear staining score (Jily; conc. 0.3 (μM)) | Hoechst 33342 nuclear staining score (Jily; conc. 1 (μM)) | Hoechst 33342 nuclear staining score (Jily; conc. 3 (μM)) | Hoechst 33342 nuclear staining score (Jily; conc. 10 (μM)) | Hoechst 33342 nuclear staining score (Jurkat [2]; conc. 0.3 (μM)) | Hoechst 33342 nuclear staining score (Jurkat [2]; conc. 1 (μM)) | Hoechst 33342 nuclear staining score (Jurkat [2]; conc. 3 (μM)) | Hoechst 33342 nuclear staining score (Jurkat [2]; conc. 10 (μM)) | Hoechst 33342 nuclear staining score (H460; conc. 0.3 (μM)) | Hoechst 33342 nuclear staining score (H460; conc. 1 (μM)) | Hoechst 33342 nuclear staining score (H460; conc. 3 (μM)) | Hoechst 33342 nuclear staining score (H460; conc. 10 (μM)) | Hoechst 33342 nuclear staining score (HeLa [3]; conc. 0.3 (μM)) | Hoechst 33342 nuclear staining score (HeLa [3]; conc. 1 (μM)) | Hoechst 33342 nuclear staining score (HeLa [3]; conc. 3 (μM)) | Hoechst 33342 nuclear staining score (HeLa [3]; conc. 10 (μM)) | IC50 (Jurkat [4]) | Hoechst 33342 nuclear staining score (MRC5; conc. 0.3 (μM)) | Hoechst 33342 nuclear staining score (MRC5; conc. 1 (μM)) | further results |
| --- | --- | --- | --- | --- | --- | --- | --- | --- | --- | --- | --- | --- | --- | --- | --- | --- | --- | --- | --- | --- | --- |
| COc1cccc(/C=C/C(=O)Cn2c(-n3ncnc3N)nc3ccccc32)c1 [Example 9] | > 1000 nM | 0 | 0 | 0 | 2 (score 2 relating to strong activity comprising more than 50% of the cells) | 0 | 0 | 0 | 2 (score 2 relating to strong activity comprising more than 50% of the cells) | 0 | 0 | 0 | 2 (score 2 relating to strong activity comprising more than 50% of the cells) | 0 | 0 | 0 | 2 (score 2 relating to strong activity comprising more than 50% of the cells) | > 1000 nM | 0 | 0 | Hoechst 33342 nuclear staining score (MRC5; conc. 3 (μM)): 0; Hoechst 33342 nuclear staining score (MRC5; conc. 10 (μM)): 0; Hoechst 33342 nuclear staining score (PBLs; conc. 0.3 (μM)): 0; Hoechst 33342 nuclear staining score (PBLs; conc. 1 (μM)): 0; Hoechst 33342 nuclear staining score (PBLs; conc. 3 (μM)): 0; Hoechst 33342 nuclear staining score (PBLs; conc. 10 (μM)): 2 (score 2 relating to strong activity comprising more than 50% of the cells) |
| Nc1ccc(C(=O)Cn2c(-n3ncnc3N)nc3ccccc32)cn1 [Example 14] | 100 to 1000 nM | 2 (score 2 relating to strong activity comprising more than 50% of the cells) | 2 (score 2 relating to strong activity comprising more than 50% of the cells) | 2 (score 2 relating to strong activity comprising more than 50% of the cells) | 2 (score 2 relating to strong activity comprising more than 50% of the cells) | 2 (score 2 relating to strong activity comprising more than 50% of the cells) | 2 (score 2 relating to strong activity comprising more than 50% of the cells) | 2 (score 2 relating to strong activity comprising more than 50% of the cells) | 2 (score 2 relating to strong activity comprising more than 50% of the cells) | 2 (score 2 relating to strong activity comprising more than 50% of the cells) | 2 (score 2 relating to strong activity comprising more than 50% of the cells) | 2 (score 2 relating to strong activity comprising more than 50% of the cells) | 2 (score 2 relating to strong activity comprising more than 50% of the cells) | 2 (score 2 relating to strong activity comprising more than 50% of the cells) | 2 (score 2 relating to strong activity comprising more than 50% of the cells) | 2 (score 2 relating to strong activity comprising more than 50% of the cells) | 2 (score 2 relating to strong activity comprising more than 50% of the cells) | < 100 nM | 1 (1 relating to weak activity comprising less than 50% of the cells) | 1 (1 relating to weak activity comprising less than 50% of the cells) | Hoechst 33342 nuclear staining score (MRC5; conc. 3 (μM)): 1 (1 relating to weak activity comprising less than 50% of the cells); Hoechst 33342 nuclear staining score (MRC5; conc. 10 (μM)): 1 (1 relating to weak activity comprising less than 50% of the cells); Hoechst 33342 nuclear staining score (PBLs; conc. 0.3 (μM)): 0; Hoechst 33342 nuclear staining score (PBLs; conc. 1 (μM)): 0; Hoechst 33342 nuclear staining score (PBLs; conc. 3 (μM)): 0; Hoechst 33342 nuclear staining score (PBLs; conc. 10 (μM)): 0 |
